Holding throughout (assay type): cell-based
The target in assay [1] is T1, EGFR WT (Homo sapiens, UniProt P00533). Nature of the assay: BaF3 cell proliferation assay, EGFR WT (Table A). The settings on record: potency code, 3 days, CellTiterGlo, read-out: EGFR WT (Activity for Inhibiting EGFR). A digest of the protocol:
(§1)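 EC50 values come from proliferation of IL-3-independent BaF3 lines. These lines were made by two spin infections with retrovirus encoding each mutant, plus polybrene (8 μg/ml). They then underwent one week of 10 μg/ml blasticidin selection and were removed from IL-3.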

The target in assay [2] is T2, HER2 YVMA (Homo sapiens, UniProt P04626, INS775YVMA).
T2 construct: expressed in transfected cells; host or cells: BaF3 (murine pro-B)
The assay is described as follows: Activity for inhibiting HER2 (Table B), HER2 YVMA. The settings on record: read-out: HER2 YVMA, potency code (IC50). The protocol: (§2) EC50 values were determined with the same application.

Assay [3] concerns the target T3, EGFR V3 (Homo sapiens, UniProt P00533, DELINS30-297G).
T3 construct: expressed in transfected cells; host or cells: BaF3 (murine pro-B), retroviral pMXs-IRES-Blasticidin
The assay is described as follows: BaF3 cell proliferation assay, EGFR V3 (Table A). Conditions: potency code, 3 days, CellTiterGlo, read-out: EGFR V3 (Activity for Inhibiting EGFR). A digest of the protocol: as §1
On the technique in general: In ATP-based viability assays light output follows the ATP content of the culture.

Assay [4] concerns the target T3, EGFR V3. The assay is described as follows: Activity for inhibiting EGFR (Table A), EGFR V3 (EGFR-Viii). The settings on record: read-out: EGFR V3, potency code (IC50).
Assay [5] concerns the target T1, EGFR WT. Nature of the assay: Activity for inhibiting EGFR (Table A), EGFR WT. Conditions: read-out: EGFR WT, potency code (IC50).
In assay [6] the target is T4, HER2 S310F (Homo sapiens, UniProt P04626, S310F).
T4 construct: expressed in transfected cells; host or cells: BaF3 (murine pro-B)
Nature of the assay: Activity for inhibiting HER2 (Table B), HER2 S310F. Conditions: read-out: HER2 S310F, potency code (IC50). Here is the method: as §2

In assay [7] the target is T4, HER2 S310F. The assay is described as follows: BaF3 cell proliferation assay, HER2 S310F (Table B). The settings on record: potency code, 3 days, CellTiterGlo, read-out: HER2 S310F (Activity for Inhibiting HER2).
The target in assay [8] is T2, HER2 YVMA. The assay is described as follows: BaF3 cell proliferation assay, HER2 YVMA (Table B). The settings on record: potency code, 3 days, CellTiterGlo, read-out: HER2 YVMA (Activity for Inhibiting HER2).

We go through 17 compounds from patent publication US11034672B1, “Tyrosine kinase inhibitor compositions, methods of making and methods of use” (Black Diamond Therapeutics, Inc., priority 2018, dated 2021).

Some results are limits rather than exact numbers.

T2 sequence (P04626 with tags, fused parts or gaps INS775YVMA): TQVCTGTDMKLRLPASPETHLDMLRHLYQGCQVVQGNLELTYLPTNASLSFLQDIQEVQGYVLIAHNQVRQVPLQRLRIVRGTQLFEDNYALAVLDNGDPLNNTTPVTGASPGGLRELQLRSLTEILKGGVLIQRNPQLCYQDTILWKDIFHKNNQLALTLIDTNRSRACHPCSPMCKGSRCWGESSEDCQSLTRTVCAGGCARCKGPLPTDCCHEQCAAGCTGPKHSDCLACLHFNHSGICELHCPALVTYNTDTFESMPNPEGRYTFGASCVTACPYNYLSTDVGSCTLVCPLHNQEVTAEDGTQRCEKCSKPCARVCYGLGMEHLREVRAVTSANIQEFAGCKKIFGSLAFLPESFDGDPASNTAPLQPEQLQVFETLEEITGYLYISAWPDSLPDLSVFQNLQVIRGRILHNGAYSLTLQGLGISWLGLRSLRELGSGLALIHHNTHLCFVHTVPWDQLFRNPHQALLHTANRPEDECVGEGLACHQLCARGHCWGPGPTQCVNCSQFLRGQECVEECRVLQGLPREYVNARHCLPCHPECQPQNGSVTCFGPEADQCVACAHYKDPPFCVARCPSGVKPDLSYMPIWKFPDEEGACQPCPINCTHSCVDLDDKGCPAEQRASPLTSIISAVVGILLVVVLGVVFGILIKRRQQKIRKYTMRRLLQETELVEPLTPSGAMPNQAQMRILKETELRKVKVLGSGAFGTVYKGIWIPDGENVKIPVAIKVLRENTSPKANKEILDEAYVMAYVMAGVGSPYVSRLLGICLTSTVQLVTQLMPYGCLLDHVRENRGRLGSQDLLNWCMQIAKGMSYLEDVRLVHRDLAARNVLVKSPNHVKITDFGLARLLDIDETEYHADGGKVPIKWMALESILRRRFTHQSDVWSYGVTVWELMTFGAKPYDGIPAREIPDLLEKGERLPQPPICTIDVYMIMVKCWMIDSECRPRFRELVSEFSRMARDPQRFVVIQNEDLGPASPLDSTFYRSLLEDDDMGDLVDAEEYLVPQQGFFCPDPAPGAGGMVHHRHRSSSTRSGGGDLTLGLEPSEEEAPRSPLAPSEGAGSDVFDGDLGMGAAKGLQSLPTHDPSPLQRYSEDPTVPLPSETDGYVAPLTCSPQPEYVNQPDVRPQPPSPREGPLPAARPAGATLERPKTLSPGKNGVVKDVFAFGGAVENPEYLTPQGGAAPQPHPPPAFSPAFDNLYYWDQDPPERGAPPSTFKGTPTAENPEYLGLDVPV
T4 sequence (P04626 23-1255 S310F): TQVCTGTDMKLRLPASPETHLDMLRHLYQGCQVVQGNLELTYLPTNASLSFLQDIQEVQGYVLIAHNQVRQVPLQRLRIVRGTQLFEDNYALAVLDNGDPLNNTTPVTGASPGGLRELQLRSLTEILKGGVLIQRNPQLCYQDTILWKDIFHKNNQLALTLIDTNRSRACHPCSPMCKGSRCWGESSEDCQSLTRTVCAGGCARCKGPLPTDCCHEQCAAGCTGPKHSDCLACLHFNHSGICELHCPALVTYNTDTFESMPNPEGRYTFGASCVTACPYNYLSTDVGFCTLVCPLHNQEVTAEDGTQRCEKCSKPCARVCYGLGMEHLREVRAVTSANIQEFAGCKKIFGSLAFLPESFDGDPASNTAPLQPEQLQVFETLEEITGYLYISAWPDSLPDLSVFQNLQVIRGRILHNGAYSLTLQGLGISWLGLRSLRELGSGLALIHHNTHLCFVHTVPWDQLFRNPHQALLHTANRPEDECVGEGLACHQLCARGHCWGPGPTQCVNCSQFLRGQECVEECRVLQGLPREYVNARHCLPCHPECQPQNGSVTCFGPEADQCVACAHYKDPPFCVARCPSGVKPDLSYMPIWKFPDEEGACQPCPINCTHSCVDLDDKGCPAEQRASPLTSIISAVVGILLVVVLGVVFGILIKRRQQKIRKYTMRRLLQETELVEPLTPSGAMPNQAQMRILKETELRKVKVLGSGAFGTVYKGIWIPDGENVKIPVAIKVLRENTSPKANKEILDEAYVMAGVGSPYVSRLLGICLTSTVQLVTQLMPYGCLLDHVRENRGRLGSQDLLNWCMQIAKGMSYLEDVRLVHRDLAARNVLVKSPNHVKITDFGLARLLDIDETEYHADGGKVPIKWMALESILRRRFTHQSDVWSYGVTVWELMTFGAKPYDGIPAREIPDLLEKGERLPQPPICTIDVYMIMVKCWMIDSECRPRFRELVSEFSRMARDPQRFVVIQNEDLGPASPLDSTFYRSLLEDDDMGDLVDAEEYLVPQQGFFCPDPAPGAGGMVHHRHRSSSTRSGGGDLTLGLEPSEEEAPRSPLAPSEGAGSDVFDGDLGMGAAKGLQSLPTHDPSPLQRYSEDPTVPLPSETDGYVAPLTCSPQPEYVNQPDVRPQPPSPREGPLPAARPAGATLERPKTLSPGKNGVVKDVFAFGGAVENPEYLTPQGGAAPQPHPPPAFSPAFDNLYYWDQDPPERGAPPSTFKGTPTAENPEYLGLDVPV
T1 sequence (P00533 25-1210 N540K): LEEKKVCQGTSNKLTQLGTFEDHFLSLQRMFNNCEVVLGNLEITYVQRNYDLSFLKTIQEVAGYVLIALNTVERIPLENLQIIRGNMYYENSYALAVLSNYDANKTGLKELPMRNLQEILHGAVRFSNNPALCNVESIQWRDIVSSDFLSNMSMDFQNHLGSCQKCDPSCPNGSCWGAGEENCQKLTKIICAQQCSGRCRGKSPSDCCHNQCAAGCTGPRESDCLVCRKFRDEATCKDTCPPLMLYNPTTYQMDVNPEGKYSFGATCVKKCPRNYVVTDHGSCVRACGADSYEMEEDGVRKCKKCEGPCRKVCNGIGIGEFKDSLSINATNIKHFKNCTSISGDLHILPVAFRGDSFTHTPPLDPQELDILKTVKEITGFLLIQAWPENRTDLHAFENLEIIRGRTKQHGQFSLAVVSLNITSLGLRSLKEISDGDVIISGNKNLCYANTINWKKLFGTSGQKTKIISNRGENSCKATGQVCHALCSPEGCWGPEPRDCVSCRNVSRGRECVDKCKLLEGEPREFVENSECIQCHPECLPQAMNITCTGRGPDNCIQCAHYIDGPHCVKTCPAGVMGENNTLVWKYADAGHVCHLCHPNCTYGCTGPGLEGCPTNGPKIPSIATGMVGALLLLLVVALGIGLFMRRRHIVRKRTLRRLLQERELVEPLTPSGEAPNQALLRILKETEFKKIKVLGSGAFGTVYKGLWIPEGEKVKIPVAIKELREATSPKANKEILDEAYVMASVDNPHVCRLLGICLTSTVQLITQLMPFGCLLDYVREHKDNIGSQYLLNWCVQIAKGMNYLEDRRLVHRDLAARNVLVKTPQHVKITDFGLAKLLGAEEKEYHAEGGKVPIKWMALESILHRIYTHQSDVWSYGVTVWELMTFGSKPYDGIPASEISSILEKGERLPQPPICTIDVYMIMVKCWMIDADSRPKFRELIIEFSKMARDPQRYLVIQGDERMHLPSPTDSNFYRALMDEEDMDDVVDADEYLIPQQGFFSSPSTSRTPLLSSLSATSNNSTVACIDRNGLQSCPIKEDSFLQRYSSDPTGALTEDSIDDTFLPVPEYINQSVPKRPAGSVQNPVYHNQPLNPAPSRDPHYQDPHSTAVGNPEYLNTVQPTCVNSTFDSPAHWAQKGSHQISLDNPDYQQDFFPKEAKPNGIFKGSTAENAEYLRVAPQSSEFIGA
T3 sequence (P00533 with tags, fused parts or gaps DELINS30-297G): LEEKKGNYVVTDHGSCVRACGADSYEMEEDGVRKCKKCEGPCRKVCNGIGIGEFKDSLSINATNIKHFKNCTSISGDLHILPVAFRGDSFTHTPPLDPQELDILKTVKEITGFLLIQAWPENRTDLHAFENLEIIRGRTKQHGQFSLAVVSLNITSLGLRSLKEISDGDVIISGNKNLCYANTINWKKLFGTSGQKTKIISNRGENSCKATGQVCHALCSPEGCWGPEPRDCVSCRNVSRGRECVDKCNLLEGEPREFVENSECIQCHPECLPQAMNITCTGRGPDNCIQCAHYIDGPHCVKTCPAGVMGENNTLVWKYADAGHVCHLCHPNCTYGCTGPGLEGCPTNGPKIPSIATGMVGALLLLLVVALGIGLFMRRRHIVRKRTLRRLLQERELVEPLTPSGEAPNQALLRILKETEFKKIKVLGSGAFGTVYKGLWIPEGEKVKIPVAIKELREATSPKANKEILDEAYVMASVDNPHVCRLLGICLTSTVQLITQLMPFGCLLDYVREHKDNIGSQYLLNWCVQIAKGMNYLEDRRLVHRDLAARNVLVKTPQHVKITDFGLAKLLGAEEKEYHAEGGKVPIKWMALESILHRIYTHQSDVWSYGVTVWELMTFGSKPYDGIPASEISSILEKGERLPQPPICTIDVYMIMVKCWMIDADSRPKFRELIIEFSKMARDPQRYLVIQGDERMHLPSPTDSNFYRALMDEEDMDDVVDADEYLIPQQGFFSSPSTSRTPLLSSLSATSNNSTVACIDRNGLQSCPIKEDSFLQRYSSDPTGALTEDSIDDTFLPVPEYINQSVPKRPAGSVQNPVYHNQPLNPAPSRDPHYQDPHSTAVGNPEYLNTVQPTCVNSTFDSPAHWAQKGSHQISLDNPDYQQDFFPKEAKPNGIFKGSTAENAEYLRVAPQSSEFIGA

On to `C=CC(=O)Nc1cc2c(Nc3ccc(OCc4cccc(F)c4)c(Cl)c3)ncnc2cc1OCCCN1CC(OC)C1` [compound 144], for which the IC50 in assay [1] lay within 100 to 200 nM; in assay [2], 100 to 200 nM; in assay [3] it was 100 to 200 nM; in assay [4] it was 100 to 200 nM; in assay [5], 100 to 200 nM; in assay [6], 30 to 50 nM. Besides, the IC50 was in the range of 30 to 50 nM in assay [7] and 100 to 200 nM in assay [8].

`C=CC(=O)Nc1cc2c(Nc3cc(Cl)c(OCc4cccc(F)c4)cc3F)ncnc2cc1OCCN1CCN(C)CC1` [compound 145]: the IC50 in assay [1] lay within 100 to 200 nM; in assay [2], 200 to 300 nM; in assay [3], 50 to 100 nM; in assay [4], 50 to 100 nM; in assay [5] it was 100 to 200 nM; in assay [6], 30 to 50 nM. Moreover, the IC50 in assay [7] was in the range of 30 to 50 nM; in assay [8], 200 to 300 nM.

Consider `CC#CC(=O)Nc1cc2c(Nc3cc(Cl)c(OCc4cccc(F)c4)cc3F)ncnc2cc1OCCN1CCN(C)CC1` [compound 146, N-(4-((5-chloro-2-fluoro-4-((3-fluorobenzyl)oxy)phenyl)amino)-7-(2-(4-methylpiperazin-1-yl)ethoxy)quinazolin-6-yl)but-2-ynamide], for which the IC50 lay within 50 to 100 nM in assay [1]; 50 to 100 nM in assay [2]; 50 to 100 nM in assay [3]; 50 to 100 nM in assay [4]; 50 to 100 nM in assay [5]; 20 to 30 nM in assay [6]. The results for the IC50 in assay [7] and in assay [8] were 20 to 30 nM and 50 to 100 nM, respectively.

For `C=CC(=O)Nc1cc2c(Nc3cc(Cl)c(OCc4cccc(F)c4)cc3F)ncnc2cc1OCCN1CC2CCC(C1)O2` [compound 147], the IC50 in assay [1] was 500 to 1000 nM; in assay [2] it was 200 to 300 nM; in assay [3] it was 50 to 100 nM; in assay [4], 50 to 100 nM; in assay [5] it was 500 to 1000 nM; in assay [6], 50 to 100 nM. Also, the IC50 in assay [7] was in the range of 50 to 100 nM; in assay [8], 200 to 300 nM.

For the compound `CC#CC(=O)Nc1cc2c(Nc3cc(Cl)c(OCc4cccc(F)c4)cc3F)ncnc2cc1OCCN1CC2CCC(C1)O2` [compound 148, N-(7-(2-(8-oxa-3-azabicyclo[3.2.1]octan-3-yl)ethoxy)-4-((5-chloro-2-fluoro-4-((3-fluorobenzyl)oxy)phenyl)amino)quinazolin-6-yl)but-2-ynamide], the IC50 in assay [1] was in the range of 200 to 300 nM; in assay [2], 50 to 100 nM; in assay [3] it was 100 to 200 nM; in assay [4] it was 100 to 200 nM; in assay [5], 200 to 300 nM; in assay [6] it was 20 to 30 nM. Further, the IC50 was 20 to 30 nM in assay [7] and 50 to 100 nM in assay [8].

For `CC#CC(=O)Nc1cc2c(Nc3cc(Cl)c(OCc4cccc(F)c4)cc3F)ncnc2cc1OCCN1CCOCC1` [compound 149, N-(4-((5-chloro-2-fluoro-4-((3-fluorobenzyl)oxy)phenyl)amino)-7-(2-morpholinoethoxy)quinazolin-6-yl)but-2-ynamide], the IC50 lay in the range of 100 to 200 nM in assay [1]; 30 to 50 nM in assay [2]; 50 to 100 nM in assay [3]; 50 to 100 nM in assay [4]; 100 to 200 nM in assay [5]; 10 to 20 nM in assay [6]. Further, the IC50 is 10 to 20 nM in assay [7] and 30 to 50 nM in assay [8].

For the compound `CC#CC(=O)Nc1cc2c(Nc3cc(Cl)c(OCc4cccc(F)c4)cc3F)ncnc2cc1OCCCN1CCOCC1` [compound 150, N-(4-((5-chloro-2-fluoro-4-((3-fluorobenzyl)oxy)phenyl)amino)-7-(3-morpholinopropoxy)quinazolin-6-yl)but-2-ynamide], the IC50 in assay [1] is 200 to 300 nM; in assay [2], 30 to 50 nM; in assay [3], 50 to 100 nM; in assay [4] it was 50 to 100 nM; in assay [5], 200 to 300 nM; in assay [6], 10 to 20 nM. Moreover, the values for the IC50 in assay [7] and in assay [8] were 10 to 20 nM and 30 to 50 nM, respectively.

Regarding `CC#CC(=O)Nc1cc2c(Nc3cc(Cl)c(OCc4cccc(F)c4)cc3F)ncnc2cc1O[C@@H]1CCN(C)C1` [compound 151, (R)-N-(4-((5-chloro-2-fluoro-4-((3-fluorobenzyl)oxy)phenyl)amino)-7-((1-methylpyrrolidin-3-yl)oxy)quinazolin-6-yl)but-2-ynamide], the IC50 lay in the range of 100 to 200 nM in assay [1]; 100 to 200 nM in assay [2]; 50 to 100 nM in assay [3]; 50 to 100 nM in assay [4]; 100 to 200 nM in assay [5]; 10 to 20 nM in assay [6]. The results for the IC50 in assay [7] and in assay [8] were 10 to 20 nM and 100 to 200 nM, respectively.

As to `CC#CC(=O)Nc1cc2c(Nc3cc(Cl)c(OCc4cccc(F)c4)cc3F)ncnc2cc1OCCN1CC(OC)C1` [compound 152, N-(4-((5-chloro-2-fluoro-4-((3-fluorobenzyl)oxy)phenyl)amino)-7-(2-(3-methoxyazetidin-1-yl)ethoxy)quinazolin-6-yl)but-2-ynamide], the IC50 in assay [1] was 100 to 200 nM; in assay [2] it was 50 to 100 nM; in assay [3], 30 to 50 nM; in assay [4], 30 to 50 nM; in assay [5] it was 100 to 200 nM; in assay [6] it was 5 to 10 nM. The IC50 in assay [7] was in the range of 5 to 10 nM; in assay [8], 50 to 100 nM.

As to `C=CC(=O)Nc1cc2c(Nc3ccc(OCc4cccc(F)n4)c(Cl)c3)ncnc2cc1OCCCN1CCOCC1` [compound 153], the IC50 in assay [1] was in the range of 500 to 1000 nM; in assay [2] it was 50 to 100 nM; in assay [3] it was 30 to 50 nM; in assay [4], 30 to 50 nM; in assay [5], 500 to 1000 nM; in assay [6], 10 to 20 nM. The results for the IC50 in assay [7] and in assay [8] were 10 to 20 nM and 50 to 100 nM, respectively.

On to `C=CC(=O)Nc1cc2c(Nc3ccc(OCc4cccc(F)n4)c(Cl)c3)ncnc2cc1OCCN1CCOCC1` [compound 154], for which the IC50 in assay [1] is 500 to 1000 nM; in assay [2], 100 to 200 nM; in assay [3] it was 30 to 50 nM; in assay [4], 30 to 50 nM; in assay [5] it was 500 to 1000 nM; in assay [6] it was 30 to 50 nM. Also, the IC50 in assay [7] was 30 to 50 nM; in assay [8] it was 100 to 200 nM.

As to `C=CC(=O)Nc1cc2c(Nc3ccc(OCc4cccc(F)n4)c(Cl)c3)ncnc2cc1OCCCN1CC(OC)C1` [compound 155], the IC50 in assay [1] is 300 to 500 nM; in assay [2] it was 30 to 50 nM; in assay [3], 30 to 50 nM; in assay [4], 30 to 50 nM; in assay [5], 300 to 500 nM; in assay [6] it was 10 to 20 nM. Also, the results for the IC50 in assay [7] and in assay [8] were 10 to 20 nM and 30 to 50 nM, respectively.

Consider `C=CC(=O)Nc1cc2c(Nc3ccc(OCc4cccc(F)n4)c(Cl)c3)ncnc2cc1OCCN1CC2CCC(C1)O2` [compound 156], for which the IC50 is above 1000 nM in assay [1]; 200 to 300 nM in assay [2]; 50 to 100 nM in assay [3]; 50 to 100 nM in assay [4]; above 1000 nM in assay [5]; 30 to 50 nM in assay [6]. Further, the values for the IC50 in assay [7] and in assay [8] were 30 to 50 nM and 200 to 300 nM, respectively.

As for `C=CC(=O)Nc1cc2c(Nc3ccc(OCc4cccc(F)n4)c(Cl)c3)ncnc2cc1OCCN1CC(OC)C1` [compound 157], the IC50 in assay [1] lay in the range of 500 to 1000 nM; in assay [2], 300 to 500 nM; in assay [3] it was 30 to 50 nM; in assay [4], 30 to 50 nM; in assay [5], 500 to 1000 nM; in assay [6] it was 30 to 50 nM. The figures for the IC50 in assay [7] and in assay [8] were 30 to 50 nM and 300 to 500 nM, respectively.

As for `C=CC(=O)Nc1cc2c(Nc3ccc(OCc4cccc(F)n4)c(Cl)c3)ncnc2cc1OCCN1CCN(C)CC1` [compound 158], the IC50 in assay [1] lay in the range of 100 to 200 nM; in assay [2], 100 to 200 nM; in assay [3] it was 30 to 50 nM; in assay [4], 30 to 50 nM; in assay [5] it was 100 to 200 nM; in assay [6] it was 30 to 50 nM. Further, the figures for the IC50 in assay [7] and in assay [8] were 30 to 50 nM and 100 to 200 nM, respectively.

On to `C=CC(=O)Nc1cc2c(Nc3ccc(OCc4cccc(F)c4)c(Cl)c3)ncnc2cc1OCCCN1C[C@@H]2C[C@H]1CO2` [compound 159], for which the IC50 in assay [1] fell in the range of 300 to 500 nM; in assay [2], 300 to 500 nM; in assay [3] it was 100 to 200 nM; in assay [4], 100 to 200 nM; in assay [5], 300 to 500 nM; in assay [6], 50 to 100 nM. Further, the IC50 in assay [7] fell in the range of 50 to 100 nM; in assay [8], 300 to 500 nM.

In the case of `C=CC(=O)Nc1cc2c(Nc3ccc(OCc4cccc(F)c4)c(Cl)c3)ncnc2cc1OCCCN1C[C@H]2C[C@@H]1CO2` [compound 160], the IC50 in assay [1] is 300 to 500 nM; in assay [2], 300 to 500 nM; in assay [3] it was 100 to 200 nM; in assay [4], 100 to 200 nM; in assay [5], 300 to 500 nM; in assay [6], 100 to 200 nM. Besides, the IC50 in assay [7] was 100 to 200 nM; in assay [8], 300 to 500 nM.
